Laboratory results as given in the kinase profiling compilation of Christmann-Franck et al. (2016).

Key:
Experiment in all cases: KINOMEscan competition binding
Conditions in all cases: compound 10.0 µM
INSR (human) = INSR (human) (UniProt P06213)
MAPK8 (human) = MAPK8 (human) (UniProt P45983)
PAK3 (human) = PAK3 (human) (UniProt O75914)
[1] = tested on: ABL1 (human), P00519 [M351T]
FGFR1 (human) = FGFR1 (human) (UniProt P11362)
[2] = biological target: JAK3 JH1 catalytic (human) (UniProt P52333)
CDK5 (human) = CDK5 (human) (UniProt Q00535)
MAP4K3 (human) = MAP4K3 (human) (UniProt Q8IVH8)
MARK3 (human) = MARK3 (human) (UniProt P27448)
STK24 (human) = STK24 (human) (UniProt Q9Y6E0)
BMPR1A (human) = BMPR1A (human) (UniProt P36894)
PIK3C2B (human) = PIK3C2B (human) (UniProt O00750)
AURKB (human) = AURKB (human) (UniProt Q96GD4)
STK4 (human) = STK4 (human) (UniProt Q13043)
PIK3CD (human) = PIK3CD (human) (UniProt O00329)
CSNK1A1L (human) = CSNK1A1L (human) (UniProt Q8N752)
MST1R (human) = MST1R (human) (UniProt Q04912)
INSRR (human) = INSRR (human) (UniProt P14616)
STK17A (human) = STK17A (human) (UniProt Q9UEE5)
PRKAA2 (human) = PRKAA2 (human) (UniProt P54646)
STK11 (human) = STK11 (human) (UniProt Q15831)
FRK (human) = FRK (human) (UniProt P42685)
DAPK2 (human) = DAPK2 (human) (UniProt Q9UIK4)
CLK4 (human) = CLK4 (human) (UniProt Q9HAZ1)
[3] = biological target: TYK2 JH1 catalytic (human) (UniProt P29597)
DMPK (human) = DMPK (human) (UniProt Q09013)
TGFBR2 (human) = TGFBR2 (human) (UniProt P37173)
[4] = tested on: KIT (human), P10721 [V559D]
CDC42BPA (human) = CDC42BPA (human) (UniProt Q5VT25)
CDC42BPG (human) = CDC42BPG (human) (UniProt Q6DT37)
MERTK (human) = MERTK (human) (UniProt Q12866)
CDK17 (human) = CDK17 (human) (UniProt Q00537)
PLK1 (human) = PLK1 (human) (UniProt P53350)
TLK2 (human) = TLK2 (human) (UniProt Q86UE8)
MAP3K11 (human) = MAP3K11 (human) (UniProt Q16584)
CHEK1 (human) = CHEK1 (human) (UniProt O14757)
ACVR2A (human) = ACVR2A (human) (UniProt P27037)
[5] = tested on: FLT3 (human), P36888 [N841I]
CAMK2G (human) = CAMK2G (human) (UniProt Q13555)
NEK9 (human) = NEK9 (human) (UniProt Q8TD19)

Chain of CLK4 (human) (Q9HAZ1 whole entry, looked up): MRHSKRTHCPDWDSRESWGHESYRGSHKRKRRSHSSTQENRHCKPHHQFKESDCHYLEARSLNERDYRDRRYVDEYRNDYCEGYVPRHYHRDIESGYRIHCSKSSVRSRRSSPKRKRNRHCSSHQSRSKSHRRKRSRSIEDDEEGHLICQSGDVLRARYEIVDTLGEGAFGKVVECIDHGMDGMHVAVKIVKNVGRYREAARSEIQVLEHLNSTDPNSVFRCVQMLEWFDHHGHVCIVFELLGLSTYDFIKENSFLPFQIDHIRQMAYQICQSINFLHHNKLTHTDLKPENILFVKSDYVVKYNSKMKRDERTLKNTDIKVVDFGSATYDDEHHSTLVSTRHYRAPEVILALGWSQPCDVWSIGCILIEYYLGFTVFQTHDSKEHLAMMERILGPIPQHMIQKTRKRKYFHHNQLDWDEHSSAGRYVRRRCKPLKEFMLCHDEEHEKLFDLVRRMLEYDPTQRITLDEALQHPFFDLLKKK
Chain of STK4 (human) (Q13043 whole entry, looked up): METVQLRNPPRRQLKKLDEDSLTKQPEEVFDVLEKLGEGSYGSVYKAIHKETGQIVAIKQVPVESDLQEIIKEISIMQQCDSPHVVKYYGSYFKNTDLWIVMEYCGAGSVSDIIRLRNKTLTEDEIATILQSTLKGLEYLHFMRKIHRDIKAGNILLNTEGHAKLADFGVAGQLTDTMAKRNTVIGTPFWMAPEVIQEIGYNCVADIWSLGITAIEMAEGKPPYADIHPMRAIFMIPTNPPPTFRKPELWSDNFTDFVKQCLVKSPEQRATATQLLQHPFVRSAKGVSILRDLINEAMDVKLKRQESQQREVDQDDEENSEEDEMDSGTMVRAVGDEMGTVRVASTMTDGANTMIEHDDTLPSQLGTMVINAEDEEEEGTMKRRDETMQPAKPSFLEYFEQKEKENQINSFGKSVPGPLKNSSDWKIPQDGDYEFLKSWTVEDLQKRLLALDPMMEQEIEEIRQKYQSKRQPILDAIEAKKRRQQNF
Chain of PIK3CD (human) (O00329 whole entry, looked up): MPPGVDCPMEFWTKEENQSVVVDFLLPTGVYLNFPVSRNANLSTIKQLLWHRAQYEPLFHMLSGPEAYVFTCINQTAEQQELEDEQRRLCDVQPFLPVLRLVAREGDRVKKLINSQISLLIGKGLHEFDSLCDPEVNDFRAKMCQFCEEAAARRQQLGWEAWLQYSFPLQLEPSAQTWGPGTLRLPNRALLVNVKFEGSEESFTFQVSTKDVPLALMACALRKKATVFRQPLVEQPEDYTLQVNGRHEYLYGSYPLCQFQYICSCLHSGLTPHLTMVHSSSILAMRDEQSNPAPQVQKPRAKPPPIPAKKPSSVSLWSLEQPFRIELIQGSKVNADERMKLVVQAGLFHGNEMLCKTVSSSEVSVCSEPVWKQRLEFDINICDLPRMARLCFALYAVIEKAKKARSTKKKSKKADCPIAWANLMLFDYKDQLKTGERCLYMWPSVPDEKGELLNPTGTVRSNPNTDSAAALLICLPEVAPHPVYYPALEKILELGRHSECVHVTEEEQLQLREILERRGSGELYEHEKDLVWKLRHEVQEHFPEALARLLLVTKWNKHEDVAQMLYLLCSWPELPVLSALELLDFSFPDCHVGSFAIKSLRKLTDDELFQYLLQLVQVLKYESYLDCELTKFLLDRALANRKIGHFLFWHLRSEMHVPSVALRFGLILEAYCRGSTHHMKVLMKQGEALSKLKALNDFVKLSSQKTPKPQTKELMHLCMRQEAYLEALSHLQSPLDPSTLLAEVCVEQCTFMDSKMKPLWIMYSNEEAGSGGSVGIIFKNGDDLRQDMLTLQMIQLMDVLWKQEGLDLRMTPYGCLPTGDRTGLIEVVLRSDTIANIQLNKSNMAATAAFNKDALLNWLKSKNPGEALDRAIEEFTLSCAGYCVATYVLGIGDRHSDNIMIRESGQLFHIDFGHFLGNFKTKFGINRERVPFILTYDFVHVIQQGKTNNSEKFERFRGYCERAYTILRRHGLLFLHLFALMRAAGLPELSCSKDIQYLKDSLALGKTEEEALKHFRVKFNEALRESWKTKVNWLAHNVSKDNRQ
Chain of CDK5 (human) (Q00535 whole entry, looked up): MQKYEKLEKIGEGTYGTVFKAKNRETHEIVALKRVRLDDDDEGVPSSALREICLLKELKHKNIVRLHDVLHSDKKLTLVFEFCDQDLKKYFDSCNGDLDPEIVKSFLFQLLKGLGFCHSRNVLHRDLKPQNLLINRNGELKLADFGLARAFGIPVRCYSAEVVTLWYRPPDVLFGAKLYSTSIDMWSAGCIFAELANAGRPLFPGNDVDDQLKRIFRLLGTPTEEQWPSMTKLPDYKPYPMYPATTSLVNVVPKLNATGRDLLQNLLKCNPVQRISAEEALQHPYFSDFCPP
Chain of MERTK (human) (Q12866 whole entry, looked up): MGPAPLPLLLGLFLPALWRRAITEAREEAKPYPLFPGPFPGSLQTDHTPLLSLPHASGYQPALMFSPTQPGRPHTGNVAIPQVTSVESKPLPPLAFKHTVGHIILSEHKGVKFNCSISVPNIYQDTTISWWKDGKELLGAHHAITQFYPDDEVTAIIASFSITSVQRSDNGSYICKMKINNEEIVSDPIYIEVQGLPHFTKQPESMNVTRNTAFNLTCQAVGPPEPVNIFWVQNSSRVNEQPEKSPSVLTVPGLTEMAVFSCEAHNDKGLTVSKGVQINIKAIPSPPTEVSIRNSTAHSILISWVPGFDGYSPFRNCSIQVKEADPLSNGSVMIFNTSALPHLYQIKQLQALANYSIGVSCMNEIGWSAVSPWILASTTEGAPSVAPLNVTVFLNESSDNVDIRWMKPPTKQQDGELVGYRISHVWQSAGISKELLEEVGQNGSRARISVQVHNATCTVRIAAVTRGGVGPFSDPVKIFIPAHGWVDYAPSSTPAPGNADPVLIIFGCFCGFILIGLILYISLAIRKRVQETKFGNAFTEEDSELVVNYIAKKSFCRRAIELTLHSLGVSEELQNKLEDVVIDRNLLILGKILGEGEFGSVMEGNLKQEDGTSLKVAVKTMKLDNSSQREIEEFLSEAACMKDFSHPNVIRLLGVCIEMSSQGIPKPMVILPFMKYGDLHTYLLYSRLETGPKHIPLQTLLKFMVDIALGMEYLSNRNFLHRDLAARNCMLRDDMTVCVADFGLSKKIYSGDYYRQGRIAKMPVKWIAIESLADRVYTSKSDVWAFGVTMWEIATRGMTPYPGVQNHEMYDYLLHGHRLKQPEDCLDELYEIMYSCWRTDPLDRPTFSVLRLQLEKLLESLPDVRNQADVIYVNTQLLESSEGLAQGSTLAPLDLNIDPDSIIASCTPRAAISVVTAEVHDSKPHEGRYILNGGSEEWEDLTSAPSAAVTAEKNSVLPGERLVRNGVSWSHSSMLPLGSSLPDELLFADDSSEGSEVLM
Chain of INSR (human) (P06213 whole entry, looked up): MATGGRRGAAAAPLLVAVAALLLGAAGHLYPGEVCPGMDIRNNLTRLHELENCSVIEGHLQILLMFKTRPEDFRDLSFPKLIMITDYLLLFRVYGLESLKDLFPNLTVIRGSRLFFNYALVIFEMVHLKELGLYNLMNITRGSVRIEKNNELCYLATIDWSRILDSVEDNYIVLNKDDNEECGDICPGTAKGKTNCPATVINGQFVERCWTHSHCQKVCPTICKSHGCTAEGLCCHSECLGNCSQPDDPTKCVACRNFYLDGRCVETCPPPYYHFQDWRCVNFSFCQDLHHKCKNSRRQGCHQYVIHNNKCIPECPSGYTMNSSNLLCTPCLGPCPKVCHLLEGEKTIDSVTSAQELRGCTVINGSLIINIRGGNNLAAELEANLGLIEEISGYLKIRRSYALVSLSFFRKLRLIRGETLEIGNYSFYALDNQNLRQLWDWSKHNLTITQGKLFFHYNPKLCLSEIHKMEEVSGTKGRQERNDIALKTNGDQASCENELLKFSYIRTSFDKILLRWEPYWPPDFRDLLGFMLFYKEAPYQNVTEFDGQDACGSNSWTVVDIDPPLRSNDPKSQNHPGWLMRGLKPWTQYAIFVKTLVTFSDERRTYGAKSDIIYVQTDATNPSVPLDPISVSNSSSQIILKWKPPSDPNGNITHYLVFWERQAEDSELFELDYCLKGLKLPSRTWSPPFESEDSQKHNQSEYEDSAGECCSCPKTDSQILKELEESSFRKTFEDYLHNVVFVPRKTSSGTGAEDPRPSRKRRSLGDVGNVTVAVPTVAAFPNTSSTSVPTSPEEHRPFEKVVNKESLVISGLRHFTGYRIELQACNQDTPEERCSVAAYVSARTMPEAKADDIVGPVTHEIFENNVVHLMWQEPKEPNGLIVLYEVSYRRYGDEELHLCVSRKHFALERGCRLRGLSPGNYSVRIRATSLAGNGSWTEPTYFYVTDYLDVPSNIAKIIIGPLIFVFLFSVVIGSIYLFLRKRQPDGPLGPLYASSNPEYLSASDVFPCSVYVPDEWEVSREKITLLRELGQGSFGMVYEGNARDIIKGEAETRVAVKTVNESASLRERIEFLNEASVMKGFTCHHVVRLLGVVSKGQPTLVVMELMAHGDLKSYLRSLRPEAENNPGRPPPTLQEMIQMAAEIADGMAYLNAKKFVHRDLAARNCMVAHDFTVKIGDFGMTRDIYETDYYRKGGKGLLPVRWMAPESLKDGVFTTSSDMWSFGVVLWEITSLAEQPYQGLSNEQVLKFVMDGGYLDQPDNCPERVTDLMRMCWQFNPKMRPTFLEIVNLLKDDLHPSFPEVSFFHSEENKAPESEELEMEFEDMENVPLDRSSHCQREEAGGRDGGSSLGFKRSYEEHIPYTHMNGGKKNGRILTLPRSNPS
Chain of DAPK2 (human) (Q9UIK4 whole entry, looked up): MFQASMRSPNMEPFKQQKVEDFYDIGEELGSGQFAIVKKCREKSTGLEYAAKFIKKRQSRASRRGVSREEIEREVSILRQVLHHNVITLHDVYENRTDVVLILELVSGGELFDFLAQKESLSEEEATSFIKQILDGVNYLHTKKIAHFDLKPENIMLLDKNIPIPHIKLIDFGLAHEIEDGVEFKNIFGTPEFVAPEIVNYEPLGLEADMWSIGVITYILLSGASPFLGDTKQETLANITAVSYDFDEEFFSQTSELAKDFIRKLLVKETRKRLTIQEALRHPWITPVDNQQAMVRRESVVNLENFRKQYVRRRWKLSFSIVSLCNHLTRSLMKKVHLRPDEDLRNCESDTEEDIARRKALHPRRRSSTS

SMILES	kinase still bound, per cent of control (INSR (human)) [%]	kinase still bound, per cent of control (MAPK8 (human)) [%]	kinase still bound, per cent of control (PAK3 (human)) [%]	kinase still bound, per cent of control [1] [%]	kinase still bound, per cent of control (FGFR1 (human)) [%]	kinase still bound, per cent of control [2] [%]	kinase still bound, per cent of control (CDK5 (human)) [%]	kinase still bound, per cent of control (MAP4K3 (human)) [%]	kinase still bound, per cent of control (MARK3 (human)) [%]	kinase still bound, per cent of control (STK24 (human)) [%]	kinase still bound, per cent of control (BMPR1A (human)) [%]	kinase still bound, per cent of control (PIK3C2B (human)) [%]	kinase still bound, per cent of control (AURKB (human)) [%]	kinase still bound, per cent of control (STK4 (human)) [%]	kinase still bound, per cent of control (PIK3CD (human)) [%]	kinase still bound, per cent of control (CSNK1A1L (human)) [%]	kinase still bound, per cent of control (MST1R (human)) [%]	kinase still bound, per cent of control (INSRR (human)) [%]	kinase still bound, per cent of control (STK17A (human)) [%]	kinase still bound, per cent of control (PRKAA2 (human)) [%]	further results
O=C1Nc2ccc(I)cc2/C1=C/c1cc(Br)c(O)c(Br)c1	100	86	100	77	77	14	83	100	68	97	8.8	10	9.4	52	81	100	100	81	2.5	100	kinase still bound, per cent of control (STK11 (human)): 84%; kinase still bound, per cent of control (FRK (human)): 45%; kinase still bound, per cent of control (DAPK2 (human)): 1.9%; kinase still bound, per cent of control (CLK4 (human)): 36%; kinase still bound, per cent of control [3]: 8.2%; kinase still bound, per cent of control (DMPK (human)): 100%; kinase still bound, per cent of control (TGFBR2 (human)): 56%; kinase still bound, per cent of control [4]: 1.8%; kinase still bound, per cent of control (CDC42BPA (human)): 100%; kinase still bound, per cent of control (CDC42BPG (human)): 91%; kinase still bound, per cent of control (MERTK (human)): 100%; kinase still bound, per cent of control (CDK17 (human)): 87%; kinase still bound, per cent of control (PLK1 (human)): 100%; kinase still bound, per cent of control (TLK2 (human)): 83%; kinase still bound, per cent of control (MAP3K11 (human)): 38%; kinase still bound, per cent of control (CHEK1 (human)): 100%; kinase still bound, per cent of control (ACVR2A (human)): 100%; kinase still bound, per cent of control [5]: 12%; kinase still bound, per cent of control (CAMK2G (human)): 40%; kinase still bound, per cent of control (NEK9 (human)): 100%
CN(C)C/C=C/C(=O)Nc1cccc(Nc2ncc3c(n2)N(C)c2ccccc2C(=O)N3C)c1	100	91	14	0.75	3.5	1.2	100	28	10	98	0.65	56	0.1	49	2.2	100	93	100	97	1.4	kinase still bound, per cent of control (STK11 (human)): 100%; kinase still bound, per cent of control (FRK (human)): 18%; kinase still bound, per cent of control (DAPK2 (human)): 69%; kinase still bound, per cent of control (CLK4 (human)): 100%; kinase still bound, per cent of control [3]: 5%; kinase still bound, per cent of control (DMPK (human)): 32%; kinase still bound, per cent of control (TGFBR2 (human)): 55%; kinase still bound, per cent of control [4]: 54%; kinase still bound, per cent of control (CDC42BPA (human)): 100%; kinase still bound, per cent of control (CDC42BPG (human)): 100%; kinase still bound, per cent of control (MERTK (human)): 46%; kinase still bound, per cent of control (CDK17 (human)): 80%; kinase still bound, per cent of control (PLK1 (human)): 22%; kinase still bound, per cent of control (TLK2 (human)): 88%; kinase still bound, per cent of control (MAP3K11 (human)): 100%; kinase still bound, per cent of control (CHEK1 (human)): 8.5%; kinase still bound, per cent of control (ACVR2A (human)): 57%; kinase still bound, per cent of control [5]: 9.2%; kinase still bound, per cent of control (CAMK2G (human)): 46%; kinase still bound, per cent of control (NEK9 (human)): 93%
